Results published in patent US5281626A, “Benzenesulfonamide derivatives” (Eisai Co., Ltd., priority 1990, dated 1994).

Experiments:
[1] = system: phospholipase A2 (PLA2) contained in the membrane fraction of rabbit heart; assay: Inhibitory activity against phospholipase A2 (PLA2) contained in the membrane fraction of rabbit heart; assay type: biochemical; conditions: CaCl2 added, 37° C., 30 minutes
Description: (§1) A. Inhibitory activity against phospholipase A2 (PLA2) contained in the membrane fraction of rabbit heart or the supernatant fraction thereof (method) An NZW male rabbit was anesthetized by the intravenous administration of pentobarbital sodium to take out its heart. This heart was washed with ice cooled physiological saline to recover a ventricle, followed by the addition of ice-cooled 0.25M sucrose/20 mM tris hydrochloride buffer (pH: 8.0) in an amount of 5 ml per g of the ventricle. The obtained mixture was mashed with a homogenizer in ice water for 30 minutes and centrifuged at 1,000 g for 10 min. The supernatant was further centrifuged at 105,000 g for 60 min. The centrifugation was conducted at 0° to 4° C. The obtained supernatant was used as such as the supernatant fraction for examination. The precipitate was suspended in the same buffer as that described above and used as the membrane fraction for examination. The protein concentrations of these fractions were each adjusted to 5 mg/ml as determined by Lowry method. […] The test tubes of the membrane fraction were kept at 37° C. for 30 minutes for incubation, while those of the supernatant fraction were kept at 37° C. for 5 minutes for incubation. Each incubation was stopped by the addition of 1 ml of Dole reagent. […] The amount of ^14 C was determined with a liquid scintillation counter. Mepacrine was selected as a comparative compound. (Results)

male SD rats = assay: Toxicity test, intravenous; assay type: in vivo; conditions: 50 mg/kg intravenously, three male SD rats per group, observed for 3 hours
Description: A small amount of 1N HCl was added to each of the compounds of Examples 4, 6, 7, 8 and 15 to form aqueous solutions. These solutions were each intravenously administered to the groups of three male SD rats of 7 weeks of age in a dose of 50 mg/kg. […] No rat died.

[2] = system: phospholipase A2 (PLA2) contained in the supernatant fraction of rabbit heart; assay: Inhibitory activity against phospholipase A2 (PLA2) contained in the supernatant fraction of rabbit heart; assay type: biochemical; conditions: EGTA added, 37° C., 5 minutes
Description: as §1

[3] = system: cardiac infarct size of rat; assay: Influence on the cardiac infarct size of rat (ligation of the coronary artery); assay type: in vivo; conditions: 1 mg/kg through the tail vein 15 minutes prior to ligation; 3 hours of ligation
Description: B. Influence on the cardiac infarct size of rat
Sixty-one male rats (weight : 220 to 300 g) were made to get myocardial ischemia by the ligation of the coronary artery. After 3 hours from the ligation, hearts were taken out of the rats and cut into round slices to obtain preparations. These preparations were stained with […]. The area unstained therewith was regarded as a cardiac infarction nidus and the area ratio of the nidus to the left ventricle was determined by the image analysis and regarded as the cardiac infarct size.
The cardiac infarct size was reduced as compared with that of the control rat by 21% or 20% by the administration of the compound of Example 4 or 6 through the tail vein in a dose of 1 mg/kg before 15 minutes prior to the ligation of the coronary artery.

| SMILES | PLA2 -inhibitory activity IC30, membrane fraction [1] | mortality (male SD rats) | PLA2 -inhibitory activity IC30, supernatant fraction [2] | reduction of cardiac infarct size as compared with control rat [3] |
| --- | --- | --- | --- | --- |
| CN(C(=O)/C=C/c1ccc(S(C)(=O)=O)cc1)c1ccc(S(=O)(=O)NC2CCCCN(Cc3ccccn3)C2)cc1 (racemic) [Example 8, (±)N-[1-(2-pyridylmethyl)-3-hexamethyleneimino]-4 {N methyl-N-[(E)-3-(4-methylsulfonylphenyl)-2-propenoyl]amino}benzenesulfonamide] | 0.029 µM | No rat died | > 100 µM |  |
| CN(C(=O)/C=C/c1ccc(S(C)(=O)=O)cc1)c1ccc(S(=O)(=O)N2CCCN(CCc3ccccc3)CC2)cc1 [Example 7, (E)-N-methyl-N-{4-[4-(2 phenylethyl)-homopiperazinyl]sulfonylphenyl}-3-(4-methylsulfonylphenyl)-2-propenamide] |  | No rat died |  |  |
| Cc1cccc(CCN(C)S(=O)(=O)c2ccc(N(C)C(=O)/C=C/c3ccc(S(C)(=O)=O)cc3)cc2)n1 [Example 6, N-methyl N-[2-(6-methyl-2-pyridyl)ethyl]-4-{N-methyl-N-[(E)-3-(4-methylsulfonylphenyl)-2-propenoyl]amino}benzenesulfonamide] | 0.056 µM | No rat died | > 100 µM | 20% |
| CN(C(=O)/C=C/c1ccc(S(C)(=O)=O)cc1)c1ccc(S(=O)(=O)NC2CCN(Cc3ccccc3)CC2)cc1 [Example 4, N-(1-benzyl-4-piperidyl)-4-(N-methyl [(E)-3-(4-methylsulfonylphenyl)-2-propenoyl]amino}benzenesulfonamide] | 0.032 µM | No rat died | > 100 µM | 21% |
| Cc1cccc(CCNS(=O)(=O)c2ccc(N(C)C(=O)/C=C/c3ccc(S(C)(=O)=O)cc3)cc2)n1 [Example 15, N-[2-(6-methyl-2-pyridyl)ethyl]-4-{N-methyl-N-[(E)-3-(4-methylsulfonylphenyl)-2-propenoyl]amino}benzenesulfonamide] | 0.081 µM | No rat died | 61 µM |  |
| CN(C(=O)/C=C/c1ccc(-n2ccnc2)cc1)c1ccc(S(=O)(=O)NC2CCCCCC2)cc1 [Example 29] | 0.45 µM |  | 90 µM |  |
| CN(C(=O)/C=C/c1ccc(O)c(O)c1)c1ccc(S(=O)(=O)NC2Cc3ccccc3C2)cc1 [Example 2, N-(2-indanyl)-4-{N-methyl-N-[(E)-3-(3,4-dihydroxyphenyl)-2-propenoyl]amino}benzenesulfonamide] | 4.48 µM |  | 40 µM |  |
